Data set [1] is described as follows: nuclear magnetic resonance (NMR) test of dissolved Drug 2 in deuterated MFD solution. The format is physicochemical. Conditions: after equilibration for 3 days. The method, then:
The adsorbate of Example 9 and the crystalline drug of Control 2A were evaluated using a nuclear magnetic resonance (NMR) test. In this test, 0.690 mg of the adsorbate of Example 9, or 0.174 mg of Control 2, was added to a microcentrifuge tube. The tubes were placed in a 37° C. temperature-controlled chamber, and 1.7 mL for Example 9, or 1.8 mL for Control 2A, of 2 wt % deuterated MFD solution (d-MFD) at pH 6.5, 37° C., and 290 mOsm/kg was added. The samples were quickly mixed using a vortex mixer for 60 seconds. […] The supernatant was then carefully transferred to an 8 mm glass NMR tube for Example 9. […]
Fluorine spectra of the sample were recorded at 282.327 MHz on a Varian Gemini 2000, 300 MHz NMR equipped with a Nalorac 8 mm indirect detection probe. […] Drug resonances were integrated relative to the internal standard peak and the drug concentration determined. The given experiment time was calculated from the time the solvent was added to the solid sample until half of the time the spectrum had been acquired by the NMR. For example, when the spectra has been recorded for 2 hours after the sample was equilibrated for 30 minutes the time listed for the NMR result is 90 minutes. […]
The adsorbates of Example 13 and Example 14 were evaluated using the nuclear magnetic resonance (NMR) test described in Example 11. […]

The nature of data set [2]: in vitro dissolution test, microcentrifuge method, Drug 2 in 0.5 wt % MFD solution. The format is physicochemical. Conditions: for AUC / Drug 2 Concentration: 0.5 wt % MFD solution pH 6.5. The method, then: The adsorbate of Example 6 and the crystalline drug of Control 2A were evaluated in an in vitro dissolution test using a microcentrifuge method as in Example 2. In this test, 9 mg of the adsorbate of Example 6, or 1.8 mg of Control 2A, was added to a microcentrifuge tube. The tubes were placed in a 37° C. temperature-controlled chamber, and 1.8 mL of 0.5 wt % MFD solution at pH 6.5 and 290 mOsm/kg was added. The samples were quickly mixed using a vortex mixer for about 60 seconds. The samples were centrifuged at 13,000 G at 37° C. for 1 minute. The resulting supernatant solution was then sampled and diluted 1:5 (by volume) with methanol. Diluted samples were analyzed by HPLC at a UV absorbance of 256 nm using a Waters Symmetry C8 column and a mobile phase consisting of 15% (0.2% H3PO4)/85% methanol. The contents of the tubes were mixed on the vortex mixer and allowed to stand undisturbed at 37° C. until the next sample was taken. Samples were collected at 4, 10, 20, 40, 90, and 1200 minutes. […]

In general, AUC refers to the area under the concentration-time curve, a measure of exposure. Low values mean low exposure, high ones high exposure.

On to `CCOC(=O)N1c2ccc(C(F)(F)F)cc2[C@@H](N(Cc2cc(C(F)(F)F)cc(C(F)(F)F)c2)C(=O)OC)C[C@H]1CC` [Control 2A, [2R,4S] 4-[(3,5-bis-trifluoromethyl-benzyl)-methoxycarbonyl-amino]-2-ethyl-6-trifluoromethyl-3,4-dihydro-2H-quinoline-1-carboxylic acid ethyl ester], for which, in data set [1], the “dissolved Drug 2 concentration” value was determined as 13 μgA/mL. Besides, the AUC in data set [2] (0 min) was 0 µg·min/mL; in data set [2] (4 min) it was 6 µg·min/mL; in data set [2] (10 min) it was 21 µg·min/mL; in data set [2] (20 min), 71 µg·min/mL; in data set [2] (40 min) it was 190 µg·min/mL; in data set [2] (90 min) it was 570 µg·min/mL. For the same compound, the AUC in data set [2] (1200 min) is 14,700 min * μg/mL. The “Drug 2 Concentration” value in data set [2] (0 min) is 0 µg/mL; in data set [2] (4 min), 3 µg/mL; in data set [2] (10 min) it was 2 µg/mL; in data set [2] (20 min), 8 µg/mL; in data set [2] (40 min) it was 4 µg/mL; in data set [2] (90 min), 11 µg/mL. The “Drug 2 Concentration” value in data set [2] (1200 min) is 15 µg/mL. The same compound gave an AUC90 in data set [2] (Drug 2, 0.5 wt % MFD solution) of 570 µg·min/mL. In addition, the “Cmax,90” value in data set [2] (Drug 2, 0.5 wt % MFD solution) was 11000 ng/mL.
